Values quoted from earlier work, collected in patent publication US7713673B2, “Fixing liquid, toner fixing method, toner fixing device, image forming method, and image forming apparatus” (priority 2005, dated 2010).

conditions: acute oral toxicity; given in brackets as a material property of the component

Compared with `CC(O)CCO` (stereo not shown) [1,3-butanediol], `CC(O)CO` (stereo not shown) [propylene glycol] is 1.5-fold higher in LD50: 10000 mg/kg for the first, 15000 mg/kg for the second.

Going from `CCOCCOC(=O)CCC(=O)OCCOCC` [diethoxyethyl succinate] to `CCCCOC(=O)CCCCCCCCC(=O)OCCCC` [dibutyl sebacate], the LD50 rises from 5000 mg/kg to 12800 mg/kg (2.6-fold).

Compared with `CC(C)COC(=O)CCCCC(=O)OCC(C)C` [diisobutyl adipate], `CCCCCCCCCCCC(=O)OCC` [ethyl laurate] is 2.6-fold lower in LD50: 12800 mg/kg for the first, 5000 mg/kg for the second.

For `CCO` [ethanol], the LD50 is given as 15000 mg/kg.
